Data published in US10501481B2, “Heterocyclic compounds and their use in preventing or treating bacterial infections” (priority 2015, dated 2019).

Columns and labels:
[1] = tested on: E. coli UFR52 (TEM-1, SHV-12, IMP-8); experiment: MIC broth microdilution, alone and synergy with ceftazidime
[2] = tested on: K. pneumoniae 200047 (TEM-1, SHV-32, CTX-M-15, OXA-1); experiment: as above
[3] = tested on: E. cloacae UFR70 (TEM-1, CTX-M-15, CMY-2, OXA-1, Porin loss); experiment: as above
[4] = tested on: E. coli 190317 (TEM-1, SHV-12, CTX-M-15, OXA-1); experiment: as above; conditions: strain 190317; compound fixed at 4 μg/mL
[5] = tested on: E. coli UFR18 (CTX-M-15, OXA-204); experiment: as above
E. coli RGN238 (OXA-1) = experiment: as above
[6] = tested on: K. pneumoniae UFR24 (TEM-1, SHV-2, SHV-11, OXA-1, OXA-48, OXA-47); experiment: as above; conditions: strain UFR24; compound fixed at 4 μg/mL
[7] = tested on: K. pneumoniae 6299 (TEM-1, SHV-11, OXA-163); experiment: as above
[8] = tested on: E. cloacae UFR38 (CTX-M-15, NDM-1); experiment: as above
[9] = tested on: E. cloacae UFR85 (TEM-1, CTX-M-15, derepressed AmpC); experiment: as above; conditions: strain UFR85; compound fixed at 4 μg/mL
OXA-48 = target: T1, OXA-48 (Klebsiella pneumoniae, UniProt Q6XEC0); experiment: β-lactamase inhibitory activity, nitrocefin hydrolysis; assay type: biochemical
T1 construct: made in house; host or cells: E. coli
Method: (§1) Enzyme activity was monitored by spectrophotometric measurement of nitrocefin (NCF-TOKU-E, N005) hydrolysis at 485 nm, at room temperature and in assay buffer A: 100 mM Phosphate pH7, 2% glycerol and 0.1 mg/mL Bovine serum albumin (Sigma, B4287). […] To a transparent polystyrene plate (Corning, 3628) were added in each well 5 μL DMSO or inhibitor dilutions in DMSO and 80 μL enzyme in buffer A. Plates were immediately read at 485 nm in a microplate spectrophotometer (BioTek, PowerWave HT) to enable background subtraction. After 30 min of pre-incubation at room temperature, 15 μL of NCF (200 μM final) were finally added in each well. Final enzyme concentrations were 0.1 nM (TEM-1), 0.075 nM (SHV-1), 0.4 nM (CTX-M-15), 1 nM (KPC-2), 0.2 nM (P99 AmpC), 0.2 nM (CMY-37), 0.4 nM (AmpC P. aeruginosa), 0.2 nM (OXA-1), 1.2 nM (OXA-11), 0.4 nM (OXA-15) and 0.3 nM (OXA-48). After 20 min incubation at room temperature, plates were once again read at 485 nm. Enzyme activity was obtained by subtracting the final signal by the background, and was converted to enzyme inhibition using non inhibited wells. IC50 curves were fitted to a classical Langmuir equilibrium model with Hill slope using XLFIT (IDBS).

[10] = tested on: K. pneumoniae BAA-1898 (TEM-1, SHV-11, SHV-12, KPC-2); experiment: microbe, parasite or virus in culture; assay type: cell-based
[11] = tested on: P. aeruginosa CIP107051 (TEM-24); experiment: MIC broth microdilution, alone and synergy with ceftazidime
[12] = tested on: E. coli UFR32 (TEM-1, VEB-1, OXA-10); experiment: as above; conditions: strain UFR32; compound fixed at 4 μg/mL
[13] = tested on: K. pneumoniae UFR68 (TEM-1, SHV-11, CTX-M-15, KPC-3); experiment: as above
[14] = tested on: K. oxytoca UFR21 (TEM-1, CTX-M-15, OXA-48); experiment: as above
TEM-1 = target: T2, TEM-1 (Escherichia coli, UniProt P62593); experiment: β-lactamase inhibitory activity, nitrocefin hydrolysis; assay type: biochemical; conditions: class (A); 30 min pre-incubation; nitrocefin 200 μM
T2 construct: made in house; host or cells: E. coli
Method: as §1

OXA-1 = target: T3, OXA-1 (Escherichia coli, UniProt P13661); experiment: as above; assay type: biochemical
T3 construct: made in house; host or cells: E. coli
Method: as §1

AmpC P. aeruginosa = AmpC P. aeruginosa (Pseudomonas aeruginosa, UniProt P24735); experiment: biochemical
Method: Enzyme activity was monitored by spectrophotometric measurement of nitrocefin (NCF-TOKU-E, N005) hydrolysis at 485 nm, at room temperature and in assay buffer A: 100 mM Phosphate pH7, 2% glycerol and 0.1 mg/mL Bovine serum albumin (Sigma, B4287). Enzymes were cloned in E. coli expression vector, expressed and purified in house using classical procedures. To a transparent polystyrene plate (Corning, 3628) were added in each well 5 μL DMSO or inhibitor dilutions in DMSO and 80 μL enzyme in buffer A. Plates were immediately read at 485 nm in a microplate spectrophotometer (BioTek, PowerWave HT) to enable background subtraction. After 30 min of pre-incubation at room temperature, 15 μL of NCF (200 μM final) were finally added in each well. Final enzyme concentrations were 0.1 nM (TEM-1), 0.075 nM (SHV-1), 0.4 nM (CTX-M-15), 1 nM (KPC-2), 0.2 nM (P99 AmpC), 0.2 nM (CMY-37), 0.4 nM (AmpC P. aeruginosa), 0.2 nM (OXA-1), 1.2 nM (OXA-11), 0.4 nM (OXA-15) and 0.3 nM (OXA-48). After 20 min incubation at room temperature, plates were once again read at 485 nm. Enzyme activity was obtained by subtracting the final signal by the background, and was converted to enzyme inhibition using non inhibited wells. IC50 curves were fitted to a classical Langmuir equilibrium model with Hill slope using XLFIT (IDBS).

OXA-15 = target: T4, OXA-15 (Pseudomonas aeruginosa, UniProt Q51574); experiment: β-lactamase inhibitory activity, nitrocefin hydrolysis; assay type: biochemical
T4 construct: made in house; host or cells: E. coli
Method: as §1

[15] = tested on: P. aeruginosa CIP105250 (OXA-15); experiment: MIC broth microdilution, compounds alone; conditions: Pseudomonas aeruginosa, CIP105250, read-out: MIC compounds of the invention alone
P99 AmpC = target: T5, P99 AmpC (Enterobacter cloacae, UniProt P05364); experiment: β-lactamase inhibitory activity, nitrocefin hydrolysis; assay type: biochemical; conditions: class (C); 30 min pre-incubation; nitrocefin 200 μM
T5 construct: made in house; host or cells: E. coli
Method: as §1

[16] = Escherichia coli, read-out: MIC compounds of the invention alone
[17] = Klebsiella pneumoniae, read-out: MIC compounds of the invention alone
[18] = Enterobacter cloacae, read-out: MIC compounds of the invention alone

T4 sequence (Q51574 22-275): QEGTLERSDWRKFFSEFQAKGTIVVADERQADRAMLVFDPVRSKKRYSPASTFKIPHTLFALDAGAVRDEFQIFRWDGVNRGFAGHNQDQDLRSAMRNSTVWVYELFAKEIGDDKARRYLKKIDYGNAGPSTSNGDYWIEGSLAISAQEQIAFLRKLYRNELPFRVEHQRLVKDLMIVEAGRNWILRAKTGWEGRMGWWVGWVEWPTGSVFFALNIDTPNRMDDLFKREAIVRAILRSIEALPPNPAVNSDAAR
T3 sequence (P13661 26-276): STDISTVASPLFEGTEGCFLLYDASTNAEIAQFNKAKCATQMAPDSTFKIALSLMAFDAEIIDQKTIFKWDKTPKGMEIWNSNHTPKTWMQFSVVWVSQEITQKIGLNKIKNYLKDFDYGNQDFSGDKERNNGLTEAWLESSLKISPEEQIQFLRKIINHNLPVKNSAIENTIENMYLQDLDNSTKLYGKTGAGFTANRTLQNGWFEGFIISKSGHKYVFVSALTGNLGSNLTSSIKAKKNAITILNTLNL
AmpC P. aeruginosa, sequence (P24735 27-397): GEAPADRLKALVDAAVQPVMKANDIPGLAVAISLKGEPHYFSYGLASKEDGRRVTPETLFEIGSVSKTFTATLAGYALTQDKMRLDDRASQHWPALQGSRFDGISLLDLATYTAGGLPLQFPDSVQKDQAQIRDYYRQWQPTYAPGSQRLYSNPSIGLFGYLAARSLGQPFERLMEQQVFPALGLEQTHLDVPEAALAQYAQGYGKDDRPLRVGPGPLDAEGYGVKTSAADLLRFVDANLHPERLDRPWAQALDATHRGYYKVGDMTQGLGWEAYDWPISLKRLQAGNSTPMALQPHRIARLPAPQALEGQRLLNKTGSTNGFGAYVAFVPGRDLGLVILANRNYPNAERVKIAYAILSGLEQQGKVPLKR
T1 sequence (Q6XEC0 23-265 limits assumed): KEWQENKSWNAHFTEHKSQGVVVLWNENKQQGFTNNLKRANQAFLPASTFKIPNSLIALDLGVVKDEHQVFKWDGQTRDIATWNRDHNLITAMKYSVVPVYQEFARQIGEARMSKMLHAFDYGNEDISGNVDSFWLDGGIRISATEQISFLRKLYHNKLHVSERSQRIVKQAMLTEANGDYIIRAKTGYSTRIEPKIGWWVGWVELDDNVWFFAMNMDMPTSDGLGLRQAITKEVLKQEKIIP
T5 sequence (P05364 21-381): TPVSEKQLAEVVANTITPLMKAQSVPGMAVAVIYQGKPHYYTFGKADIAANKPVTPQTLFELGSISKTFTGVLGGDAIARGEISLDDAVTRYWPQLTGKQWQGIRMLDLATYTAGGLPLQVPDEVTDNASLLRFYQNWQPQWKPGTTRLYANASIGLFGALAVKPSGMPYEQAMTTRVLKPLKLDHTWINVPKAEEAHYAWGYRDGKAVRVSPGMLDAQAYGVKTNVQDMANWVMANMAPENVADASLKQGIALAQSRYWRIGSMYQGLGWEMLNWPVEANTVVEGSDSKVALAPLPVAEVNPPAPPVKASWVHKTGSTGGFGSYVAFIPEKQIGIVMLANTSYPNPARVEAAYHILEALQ
T2 sequence (P62593 24-286 limits assumed): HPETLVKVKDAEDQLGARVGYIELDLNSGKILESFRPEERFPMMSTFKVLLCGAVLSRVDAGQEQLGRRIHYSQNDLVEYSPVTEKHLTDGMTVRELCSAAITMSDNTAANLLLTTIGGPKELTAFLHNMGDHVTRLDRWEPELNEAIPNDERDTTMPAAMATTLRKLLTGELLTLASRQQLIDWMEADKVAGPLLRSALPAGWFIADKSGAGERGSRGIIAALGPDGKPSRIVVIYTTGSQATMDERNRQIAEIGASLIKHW

## O=C1N2Cc3c(sc(=O)n3CCO)C(C2)N1OS(=O)(=O)[O-].[Na+] (stereo not drawn) [Example 5, Sodium [5-(2-hydroxyethyl)-4,9-dioxo-3-thia-5,8,10-triaza-tricyclo[6.2.1.0^2.6]undec-2(6)-en-10-yl) sulfate]
[1]; [16]
  MIC: 0.5 µg/mL
[1]; strain UFR52, compound fixed at 4 μg/mL
  MIC of CAZ in combination with compound at 4 μg/mL: <0.25 µg/mL
[2]; [17]
  MIC: 2 µg/mL
[2]; strain 200047, compound fixed at 4 μg/mL
  MIC of CAZ in combination with compound at 4 μg/mL: <0.25 µg/mL
[3]; [18]
  MIC: 1 µg/mL
[3]; strain UFR70, compound fixed at 4 μg/mL
  MIC of CAZ in combination with compound at 4 μg/mL: <0.25 µg/mL
[4]
  MIC of CAZ in combination with compound at 4 μg/mL: <0.25 µg/mL
[5]; [16]
  MIC: 2 µg/mL
[5]; strain UFR18, compound fixed at 4 μg/mL
  MIC of CAZ in combination with compound at 4 μg/mL: <0.25 µg/mL
E. coli RGN238 (OXA-1); [16]
  MIC: 1 µg/mL
E. coli RGN238 (OXA-1); strain RGN238, compound fixed at 4 μg/mL
  MIC of CAZ in combination with compound at 4 μg/mL: <0.25 µg/mL
[6]
  MIC of CAZ in combination with compound at 4 μg/mL: <0.25 µg/mL
[7]; [17]
  MIC: 8 µg/mL
[7]; strain 6299, compound fixed at 4 μg/mL
  MIC of CAZ in combination with compound at 4 μg/mL: ≤0.125 µg/mL
[8]; [18]
  MIC: 2 µg/mL
[8]; strain UFR38, compound fixed at 4 μg/mL
  MIC of CAZ in combination with compound at 4 μg/mL: <0.25 µg/mL
[9]
  MIC of CAZ in combination with compound at 4 μg/mL: <0.25 µg/mL
OXA-48
  IC50: 0.00079 µM
[10]; Klebsiella pneumoniae, BAA1898, read-out: MIC compounds of the invention alone
  MIC: 8 µg/mL
[10]; strain BAA-1898, compound fixed at 4 μg/mL
  MIC of CAZ in combination with compound at 4 μg/mL: 4 µg/mL
[11]; Pseudomonas aeruginosa, CIP107051, read-out: MIC compounds of the invention alone
  MIC: > 32 µg/mL
[11]; strain CIP107051, compound fixed at 4 μg/mL
  MIC of CAZ in combination with compound at 4 μg/mL: 4 µg/mL
[12]
  MIC of CAZ in combination with compound at 4 μg/mL: <0.25 µg/mL
[13]; [17]
  MIC: 8 µg/mL
[13]; strain UFR68, compound fixed at 4 μg/mL
  MIC of CAZ in combination with compound at 4 μg/mL: ≤0.25 µg/mL
[14]; Klebsiella oxytoca, read-out: MIC compounds of the invention alone
  MIC: 4 µg/mL
[14]; strain UFR21, compound fixed at 4 μg/mL
  MIC of CAZ in combination with compound at 4 μg/mL: <0.25 µg/mL
TEM-1
  IC50: 0.0018 µM
OXA-1
  IC50: 0.31 µM
AmpC P. aeruginosa
  IC50: 0.37 µM
OXA-15
  IC50: 0.19 µM
[15]
  MIC: > 32 µg/mL
P99 AmpC
  IC50: 0.024 µM
